Test system: PBMC (polyclonal gluten-specific T cells) of paediatric and adult CD patients
Assay: IFN-γ ELISpot of PBMC after 3 day oral wheat challenge (SFU, % of maximal peptide response, dominance scores, EC50; Examples 5-6)
Type: cell-based, human
Settings: for IFN-γ ELISpot response: after oral wheat challenge; for IFN-γ ELISpot responses Day 0 prior to vs Day 6 after wheat challenge: p<0.05, Kruskal Wallis
[1] = patient A, 11-17 yrs, cut-off 10 SFU
[2] = patient E, H, 11-17 yrs, cut-off 10 SFU
[3] = patient F, 11-17 yrs, cut-off 10 SFU
[4] = patient G, 11-17 yrs, cut-off 10 SFU
[5] = patient H (HLA-DQ2.5 homozygote), 3-5yrs, cut-off 10 SFU
[6] = patient H, 11-17 yrs, cut-off 10 SFU
[7] = patient ID not given, 11-17 yrs, cut-off 10 SFU
[8] = patient N, 3-5yrs, cut-off 10 SFU
[9] = patient P, 11-17 yrs, cut-off 21.6 SFU
[10] = patient Q, 11-17 yrs, cut-off 10 SFU
[11] = patient U, H, 11-17 yrs, cut-off 10 SFU
[12] = patient V, 6-10 yrs, cut-off 10 SFU
[13] = patient Y, 6-10 yrs, cut-off 10 SFU
[14] = patient eleven, 6-10 yrs, cut-off 10 SFU
[15] = patient four, 3-5yrs, cut-off 10 SFU
[16] = patient seven, 6-10 yrs, cut-off 10.5 SFU
[17] = patient ten, 3-5yrs, cut-off 10 SFU
[18] = patient three, 6-10 yrs, cut-off 10.5 SFU
[19] = patient twelve, 11-17 yrs, cut-off 10 SFU
[20] = patient two, 3-5yrs, cut-off 10 SFU

QPFPQPQQPFSQQ
IFN-γ ELISpot response [1]: 9 SFU | IFN-γ ELISpot response [2]: 16 SFU | Significant response as percentage of maximal peptide SFU (patient E, max peptide 224 SFU): (6-10% = ^) | IFN-γ ELISpot response [3]: 12 SFU | Significant response as percentage of maximal peptide SFU (patient F, max peptide 178 SFU): (6-10% = ^) | IFN-γ ELISpot response [4]: 1 SFU | IFN-γ ELISpot response [5]: 13 SFU | IFN-γ ELISpot response [6]: 2 SFU | IFN-γ ELISpot response [7]: 30 SFU | Significant response as percentage of maximal peptide SFU (patient ID not given, max peptide 95 SFU): ′′ (21-40% = ′′) | Significant response as percentage of maximal peptide SFU (patient II, max peptide 15 SFU): + (>70% = +) | Significant response as percentage of maximal peptide SFU (patient J, max peptide 196 SFU): (6-10% = ^) | Significant response as percentage of maximal peptide SFU (patient K, max peptide 53 SFU): ′′ (21-40% = ′′) | Significant response as percentage of maximal peptide SFU (patient M, max peptide 48 SFU): ′′ (21-40% = ′′) | IFN-γ ELISpot response [8]: 3 SFU | IFN-γ ELISpot response [9]: 10 SFU | IFN-γ ELISpot response [10]: 28 SFU | Significant response as percentage of maximal peptide SFU (patient Q, max peptide 97 SFU): ′′ (21-40% = ′′) | IFN-γ ELISpot response [11]: 22 SFU | Significant response as percentage of maximal peptide SFU (patient U, max peptide 81 SFU): ′′ (21-40% = ′′) | IFN-γ ELISpot response [12]: 5 SFU | IFN-γ ELISpot response [13]: 6 SFU | IFN-γ ELISpot response [14]: 1 SFU | Significant response as percentage of maximal peptide SFU (patient five, max peptide 48 SFU): ′′ (21-40% = ′′) | IFN-γ ELISpot response [15]: 12 SFU | Significant response as percentage of maximal peptide SFU (patient four, max peptide 44 SFU): ′′ (21-40% = ′′) | IFN-γ ELISpot response [16]: 6 SFU | IFN-γ ELISpot response [17]: 3 SFU | IFN-γ ELISpot response [18]: 13 SFU | IFN-γ ELISpot response [19]: 9 SFU | IFN-γ ELISpot response [20]: 9 SFU

QPPFSEEQEQPLPQ [gluten peptide described by Vader et al, reference compound]
positive polyclonal T cell response after wheat challenge, proportion (Example 5, 2/30): 6.7% | polyclonal T cell responses following wheat challenge, volunteers (Example 6, 2/30): 6.7%

TIPEQPEQPFPLQ
IFN-γ ELISpot response [1]: 0 SFU | IFN-γ ELISpot response [2]: 224 SFU | Significant response as percentage of maximal peptide SFU (patient E, max peptide 224 SFU): + (>70% = +) | IFN-γ ELISpot response [3]: 14 SFU | Significant response as percentage of maximal peptide SFU (patient F, max peptide 178 SFU): (6-10% = ^) | IFN-γ ELISpot response [4]: 2 SFU | IFN-γ ELISpot response [5]: 2 SFU | IFN-γ ELISpot response [6]: 4 SFU | IFN-γ ELISpot response [7]: 6 SFU | Significant response as percentage of maximal peptide SFU (patient J, max peptide 196 SFU): (6-10% = ^) | IFN-γ ELISpot response [8]: 3 SFU | IFN-γ ELISpot response [9]: 7 SFU | IFN-γ ELISpot response [10]: 8 SFU | IFN-γ ELISpot response [11]: 5 SFU | IFN-γ ELISpot response [12]: 0 SFU | IFN-γ ELISpot response [13]: 2 SFU | IFN-γ ELISpot response [14]: 3 SFU | IFN-γ ELISpot response [15]: 3 SFU | IFN-γ ELISpot response [16]: 1 SFU | IFN-γ ELISpot response [17]: 5 SFU | IFN-γ ELISpot response [18]: 18 SFU | IFN-γ ELISpot response [19]: 1 SFU | IFN-γ ELISpot response [20]: 11 SFU | Significant response as percentage of maximal peptide SFU (patient two, max peptide 60 SFU): ′ (11-20% = ′)

W09 (PQPFLPELPYPQP) [Peptide W09]
Dominance score 3-5yrs (n = 9) (CD children 3-5yrs, n = 9, following wheat challenge, mean percentage of maximal peptide response): 30.7 | Dominance score 6-10yrs (n = 10) (CD children 6-10yrs, n = 10, following wheat challenge, mean percentage of maximal peptide response): 28.6 | Dominance score 11-18yrs (n = 11) (CD children 11-18yrs, n = 11, following wheat challenge, mean percentage of maximal peptide response): 19.1 | Dominance score Mean all ages (CD children, all ages, following wheat challenge (Table 9)): 25.2

YEVIRSLVLRTLPN
IFN-γ ELISpot response [1]: 20 SFU | Significant response as percentage of maximal peptide SFU (patient A, max peptide 20 SFU): + (>70% = +) | IFN-γ ELISpot response [2]: 1 SFU | IFN-γ ELISpot response [3]: 2 SFU | IFN-γ ELISpot response [4]: 1 SFU | IFN-γ ELISpot response [5]: 0 SFU | IFN-γ ELISpot response [6]: 3 SFU | IFN-γ ELISpot response [7]: 1 SFU | IFN-γ ELISpot response [8]: 2 SFU | IFN-γ ELISpot response [9]: 49 SFU | Significant response as percentage of maximal peptide SFU (patient P, max peptide 64 SFU): + (>70% = +) | IFN-γ ELISpot response [10]: 2 SFU | IFN-γ ELISpot response [11]: 3 SFU | IFN-γ ELISpot response [12]: 3 SFU | Significant response as percentage of maximal peptide SFU (patient W, max peptide 30 SFU): + (>70% = +) | IFN-γ ELISpot response [13]: 1 SFU | IFN-γ ELISpot response [14]: 1 SFU | IFN-γ ELISpot response [15]: 1 SFU | IFN-γ ELISpot response [16]: 10 SFU | IFN-γ ELISpot response [17]: 3 SFU | IFN-γ ELISpot response [18]: 4 SFU | IFN-γ ELISpot response [19]: 0 SFU | IFN-γ ELISpot response [20]: 1 SFU

tetanus toxoid: positive control antigen (CSL, Australia) [reference compound]
IFN-γ ELISpot responses Day 0 prior to vs Day 6 after wheat challenge: no difference | IFN-γ ELISpot responses Day 0 prior to vs Day 6 after wheat challenge (listed as Tetanus toxoid): did not differ
